Legend:
[1] = test system: MCF7; experiment: Cytotoxicity against human MCF7 cells assessed as effect on cell viability up to 100 uM after 24 hrs by WST1 assay; type: cell-based; conditions: mcf7, 24 h
[2] = test system: HUVEC; experiment: Cytotoxicity against HUVEC assessed as effect on cell viability up to 100 uM after 24 hrs by WST1 assay; type: cell-based; conditions: human

CCOC(=O)[C@]1(C)CCC[C@]2(C)c3cc4occc4cc3C[C@@H](O)[C@@H]12
Activity [1]: Non-Toxic
Activity [2]: Non-Toxic

COC(=O)[C@]1(C)CCC[C@]2(C)c3cc4oc(C)nc4cc3C[C@@H](O)[C@@H]12
Activity [1]: Non-Toxic
Activity [2]: Non-Toxic

Reference: ChEMBL document CHEMBL4190167 (Medchemcomm, 2016)
